The results in this text go back to patent US8343966B2, “Organic compounds” (Novartis AG, priority 2008, dated 2013).

The target in the experiment is T1, human ALK5 (ALK5 T204D kinase domain) (Homo sapiens, UniProt P36897, T204D).
T1 construct: The kinase domain of human ALK5 (amino acids 200-503); made in house; host or cells: insect cells (baculovirus)
T1 sequence (P36897 200-503 T204D): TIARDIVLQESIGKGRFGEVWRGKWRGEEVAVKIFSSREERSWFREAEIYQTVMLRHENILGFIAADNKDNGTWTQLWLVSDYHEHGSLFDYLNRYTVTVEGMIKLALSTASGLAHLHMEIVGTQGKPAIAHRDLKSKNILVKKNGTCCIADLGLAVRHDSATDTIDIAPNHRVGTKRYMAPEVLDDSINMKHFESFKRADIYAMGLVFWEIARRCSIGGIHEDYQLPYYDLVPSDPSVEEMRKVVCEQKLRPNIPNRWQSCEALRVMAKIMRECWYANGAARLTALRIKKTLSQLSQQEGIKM
Put plainly: ALK5 kinase assay, [33P] phosphate incorporation into casein. In kind it is biochemical. Conditions: casein substrate, 1 μM unlabelled ATP. The method, then: The kinase activity of ALK5 is assessed by measuring radiolabelled phosphate [33P] incorporation in to the generic substrate, casein. The kinase domain of human ALK5 (amino acids 200-503) is fused to an N-terminal histidine tag. The kinase activity of ALK5 is rendered constitutive via point mutation at amino acid 204 (threonine to aspartate modification, ALK5 T204D) and the kinase construct is engineered to be expressed from a baculovirus expression construct in insect cells. The purified, recombinantly-expressed histidine-tagged ALK5 T204D protein is dissolved at 5.4 mg/ml in 50 mM Tris-HCl pH 8.0, 150 mM NaCl, 5 mM DTT. ALK5 T204D is dissolved to 2.5 μg/ml in assay buffer (Assay buffer: 20 mM Tris-HCl pH 7.4, 10 mM MgCl2, 2 mM MnCl2) on the day of use.
Test compounds and reference compounds are dissolved in assay buffer without DTT containing 5% (v/v) DMSO. Stock solutions of test and reference compounds are diluted in assay buffer with DTT (1.25 mM) containing 4.5% (v/v) DMSO. 10 μl of test or reference compound are added to the appropriate wells of 96 well U-bottomed plate. Total enzyme activity is determined by measuring ALK5 T204D activity in the absence of ALK5 kinase inhibitor reference compounds. Non-specific binding (NSB) is determined by measuring the activity of ALK5 T204D in the presence of ALK5 kinase inhibitor reference compounds. 10 μl of dephosphorylated casein stock solution (dephosphorylated casein is dissolved in ddH2O at 20 mg/ml) is added per well (200 μg/well final assay concentration). 20 μl of ALK5 T204D (2.5 μg/ml solution) is added per well (50 ng/well final assay concentration). The plates are left to incubate at room temperature for 10 minutes.
10 μl of ATP mix is added to the well to initiate the reaction (0.66 nM [^33P]ATP/1 μM unlabelled ATP/well final assay concentration). The ATP mix is prepared as follows, unlabelled ATP (3 mM) is dissolved in ddH2O and pH adjusted to 7.4. The stock concentration of [^33P]ATP is 10 μCi/μl. The appropriate volume of [^33P]ATP is added to unlabelled ATP solution such that the final assay concentration per well is 0.1 μCi. Following addition of the ATP mix, the plates are incubated at room temperature for 50 minutes. The kinase reaction is terminated by the addition of 50 μL Stop Buffer (20 mM Tris-HCl pH 7.4, 10 mM EDTA).
75 μl/well from the reaction plate is transferred to a Multiscreen-IP plate (MultiScreen-IP plates are prepared by added 50 μL of 70% (v/v) ethanol per well and incubated for 5 minutes at room temperature. The ethanol is removed by aspiration via a MultiScreen HTS Vacuum Manifold unit (Millipore, Cat no: MSVMHT500). The plates are washed twice by adding 200 μl/well ddH2O). The MultiScreen-IP plate is incubated at room temperature for 30 minutes to allowing binding of casein to the plate. The MultiScreen-IP plates are washed three times by adding 200 μl/well 100 mM phosphoric acid solution and the gasket is carefully removed from the back of the MultiScreen-IP plate and the plate dried in the oven for 30 minutes. The MultiScreen-IP plate is backsealed, 50 μL of Microscint™20 is added, then the plates are topsealed and radiolabelled casein detected and quantified on a TopCount™ plate-reader using the ^33P scintillation protocol.
The term IC50 denotes the concentration at which inhibition is half-maximal. Low readings indicate inhibition by little substance, high ones a need for much substance. In the case of `CC(C)(O)c1cc(-c2cncc(-c3cnn(C4CCOCC4)c3)c2)cc(-c2ccccn2)n1` [Example 2.84, 2-{5″-[1-(Tetrahydro-pyran-4-yl)-1H-pyrazol-4-yl]-[2,2′;4′,3″]terpyridin-6′-yl}-propan-2-ol], the midpoint of inhibition, the IC50, lay at 20 nM.

In turn, `[2H]C([2H])([2H])N1CCN(Cc2ccc(-c3cncc(-c4cc(-c5ccccn5)nc(C(C)(C)O)c4)c3)cc2)CC1` [Example 2.85, 2-{5″-[4-(4-Methyl-d3-piperazin-1-ylmethyl)-phenyl]-[2,2′;4′,3″]terpyridin-6′-yl}-propan-2-ol] showed an IC50 of 74 nM.

Compound `Cn1cc(-c2cncc(-c3cc(-c4ccccn4)nc(C(C)(C)O)c3)c2)cn1` [Example 2.86, 2-[5″-(1-Methyl-1H-pyrazol-4-yl)-[2,2′;4′,3″]terpyridin-6′-yl]-propan-2-ol] had an IC50 of 92 nM.

The compound `CC1CN(C(=O)c2ccc(-c3cncc(-c4cc(-c5ccccn5)nc(C(C)(C)O)c4)c3)cc2)CC(C)N1C` (stereo not drawn) [Example 2.87, {4-[6′-(1-Hydroxy-1-methyl-ethyl)-[2,2′;4′,3″]terpyridin-5″-yl]-phenyl}-(3,4,5-trimethyl-piperazin-1-yl)-methanone] had an IC50 of 139 nM.

`CC(C)(O)c1cc(-c2cncc(-c3cnn(C4CCNCC4)c3)c2)cc(-c2ccccn2)n1` [Example 2.88, 2-[5″-(1-Piperidin-4-yl-1H-pyrazol-4-yl)-[2,2′;4′,3″]terpyridin-6′-yl]-propan-2-ol] came in with an IC50 of 22 nM.

`CC(C)N1CCC(n2cc(-c3cncc(-c4cc(-c5ccccn5)nc(C(C)(C)O)c4)c3)cn2)CC1` [Example 2.89] returned an IC50 of 17 nM.

In turn, `Cc1cc(CN2CCN(C(C)C)CC2)ccc1-c1cncc(-c2cc(-c3ccccn3)nc(C(C)(C)O)c2)c1` [Example 2.90, 2-{5″-[4-(4-Isopropyl-piperazin-1-ylmethyl)-2-methyl-phenyl]-[2,2′;4′,3″]terpyridin-6′-yl}-propan-2-ol] displayed a 50% inhibitory concentration (IC50) of 71 nM.

In turn, `C[C@@H]1CN(Cc2ccc(-c3cncc(-c4cc(-c5ccccn5)nc(C(C)(C)O)c4)c3)cc2)CCN1` [Example 2.91, 2-{5″-[4-((R)-3-Methyl-piperazin-1-ylmethyl)-phenyl]-[2,2′;4′,3″]terpyridin-6′-yl}-propan-2-ol] had a 50% inhibitory concentration (IC50) of 32 nM.

`CC1(C)CN(Cc2ccc(-c3cncc(-c4cc(-c5ccccn5)nc(C(C)(C)O)c4)c3)cc2)CCN1` [Example 2.92, 2{-5″-[4-(3,3-Dimethyl-piperazin-1-ylmethyl)-phenyl]-[2,2′;4′,3″]terpyridin-6′-yl}-propan-2-ol] displayed an IC50 of 35 nM.

`CC(C)N1CCN(Cc2ccc(-c3cncc(-c4cc(-c5ccccn5)nc(C(C)(C)C)c4)c3)cc2)CC1` [Example 2.95, 6′-tert-Butyl-5″-[4-(4-isopropyl-piperazin-1-ylmethyl)-phenyl]-[2,2′;4′,3″]terpyridine] showed an IC50 of 209 nM.

On to `[2H]C([2H])([2H])Nc1cc(-c2cncc(-c3ccc(CN4CCN(C(C)C)CC4)cc3)c2)cc(-c2ccccn2)n1` [Example 2.100, {5″-[4-(4-Isopropyl-piperazin-1-ylmethyl)-phenyl]-[2,2′;4′,3″]terpyridin-6′-yl}-methyl-d3-amine], for which the IC50 was 11 nM.

The compound `[2H]C([2H])([2H])Nc1cc(-c2cncc(-c3ccc(CN4CCNCC4)cc3)c2)cc(-c2ccccn2)n1` [Example 2.102, Methyl-d3-[5″-(4-piperazin-1-ylmethyl-phenyl)-[2,2′;4′,3″]terpyridin-6′-yl]-amine] returned an IC50 of 14 nM.

Turning to `[2H]C([2H])([2H])Nc1cc(-c2cncc(-c3cnn(C)c3)c2)cc(-c2ccccn2)n1` [Example 2.104, Methyl-d3-[5″-(1-methyl-1H-pyrazol-4-yl)-[2,2′;4′,3″]terpyridin-6′-yl]-amine], the IC50 came out at 13 nM.

`CNc1cc(-c2cncc(-c3ccc(C(=O)N4CCN(C)CC4)cc3)c2)cc(-c2ccccn2)n1` [Example 2.106, [4-(6′-Methyl-d3-amino-[2,2′;4′,3″]terpyridin-5″-yl)-phenyl]-(4-methyl-d3-piperazin-1-yl)-methanone]: half-maximal inhibition (IC50) was put at 9 nM.

Regarding `[2H]C([2H])([2H])Nc1cc(-c2cncc(-c3ccc(CN4CCN(C(C)(C)C)CC4)cc3)c2)cc(-c2ccccn2)n1` [Example 2.107, {5″-[4-(4-tert-Butyl-piperazin-1-ylmethyl)-phenyl]-[2,2′;4′,3″]terpyridin-6′-yl}-methyl-d3-amine], the IC50 stood at 13 nM.

`CCNc1cc(-c2cncc(-c3cccc(CN4CCN(C(C)(C)C)CC4)c3)c2)cc(-c2ccccn2)n1` [Example 2.111, {5″-[3-(4-tert-Butyl-piperazin-1-ylmethyl)-phenyl]-[2,2′;4′,3″]terpyridin-6′-yl}-ethyl-amine] came in with an IC50 of 154 nM.

Consider `CCNc1cc(-c2cncc(-c3cccc(CN4CCN(C(C)C)CC4)c3)c2)cc(-c2ccccn2)n1` [Example 2.114, Ethyl-{5″-[3-(4-isopropyl-piperazin-1-ylmethyl)-phenyl]-[2,2′;4′,3″]terpyridin-6′-yl}-amine], for which it took 42 nM to reach half-maximal inhibition (IC50).

Take `CCNc1cc(-c2cncc(-c3cc(C)cc(CN)c3)c2)cc(-c2ccccn2)n1` [Example 2.116, [5″-(3-Aminomethyl-5-methyl-phenyl)-[2,2′;4′,3″]terpyridin-6′-yl]-ethyl-amine]: half-maximal inhibition (IC50) required 48 nM.

For `CC(C)(C)N1CCN(Cc2cccc(-c3cncc(-c4cc(NC5CC5)nc(-c5ccccn5)c4)c3)c2)CC1` [Example 2.119, {5″-[3-(4-tert-Butyl-piperazin-1-ylmethyl)-phenyl]-[2,2′;4′,3″]terpyridin-6′-yl}-cyclopropyl-amine], the IC50 worked out at 64 nM.

Take `CC(C)(C)N1CCN(Cc2ccc(-c3cncc(-c4cc(NC5CC5)nc(-c5ccccn5)c4)c3)cc2)CC1` [Example 2.120, {5″-[4-(4-tert-Butyl-piperazin-1-ylmethyl)-phenyl]-[2,2′;4′,3″]terpyridin-6′-yl}-cyclopropyl-amine]: the IC50 was determined as 22 nM.

In the case of `Cc1ccc(-c2cc(-c3cncc(-c4ccc(CN5CCN(C(C)C)CC5)cc4)c3)cc(NC3CC3)n2)o1` [Example 2.125, Cyclopropyl-[5-[4-(4-isopropyl-piperazin-1-ylmethyl)-phenyl]-6′-(5-methyl-furan-2-yl)-[3,4′]bipyridinyl-2′-yl]-amine], inhibition was half-maximal at 38 nM (IC50).

Compound `CC(C)Nc1cc(-c2cncc(-c3cccc(CN4CCN(C(C)(C)C)CC4)c3)c2)cc(-c2ccccn2)n1` [Example 2.133, {5″-[3-(4-tert-Butyl-piperazin-1-ylmethyl)-phenyl]-[2,2′;4′,3″]terpyridin-6′-yl}-isopropyl-amine] yielded an IC50 of 357 nM.

Take `CC(C)Nc1cc(-c2cncc(-c3ccc(CN4CCN(C(C)(C)C)CC4)cc3)c2)cc(-c2ccccn2)n1` [Example 2.134, {5″-[4-(4-tert-Butyl-piperazin-1-ylmethyl)-phenyl]-[2,2′;4′,3″]terpyridin-6′-yl}-isopropyl-amine]: the IC50 is 22 nM.

In turn, `CC(C)(C)N1CCN(Cc2ccc(-c3cncc(-c4cc(N)nc(-c5ccccn5)c4)c3)cc2)CC1` [Example 2.158, 5″-[4-(4-tert-Butyl-piperazin-1-ylmethyl)-phenyl]-[2,2′;4′,3″]terpyridin-6′-ylamine] registered an IC50 of 35 nM.
